Paper PMC8022858, “Discovery of bone morphogenetic protein 7-derived peptide sequences that attenuate the human osteoarthritic chondrocyte phenotype” (Molecular Therapy. Methods & Clinical Development, 2021)

Assays:
OA-HAC pool = experiment: Alanine scanning of peptide p[63-82], gene expression and bioactivity score; type: cell-based, human; conditions: pool of 18 OA-HACs, 100 nM; for impact of alanine substitution on peptide p[63-82] bioactivity (bioactivity score): 24 h, score = sum of fold change of COL10A1, ALPL, MMP13, COL2A1, NKX3-2 versus wild-type (Figure 5C)
Experimental: Figure 5 Molecular characterization of peptides p[63−82] and p[113−132] (A) A pool of OA-HACs (n = 4 donors) was transfected with a scrambled siRNA or with an NKX3-2 siRNA (100 nM siRNA) and cultured for 24 h. Cultures were then exposed to peptide p[63−82] or p[113−132] (100 nM peptide). Samples were harvested 24 h later and analyzed for the expression of the indicated mRNAs (normalized to 28S rRNA). (B) SW1353 chondrocytic cells were transfected with BRE (SMAD1/5/8 reporter) or CAGA12 (SMAD2/3 reporter) firefly luciferase-reporter plasmids. A CMV-Gaussia plasmid was cotransfected as a transfection control. Cells were then cultured for 24 h and subsequently exposed to control, p[63−82], or p[113−132] for 8 h. Firefly and Gaussia bioluminescence were measured in cells and medium (respectively), and relative light units (RLUs) of firefly luciferase were normalized for the Gaussia luciferase signal. The normalized firefly luciferase signal of the control condition was set at 1, and peptide conditions were calculated relative to the control condition (FL/GL). Error bars represent mean ± SEM; statistical significance for peptide conditions versus siScrambled or siNKX3-2 (A) or control condition (B) as determined by unpaired two-tailed Student’s t test is represented as ∗p < 0.05, ∗∗p < 0.01, and ∗∗∗p < 0.001. (C) An alanine scanning library of peptide p[63−82] was synthesized, and the pool of 18 OA-HACs originally used for the full library scanning (Figure 1) was exposed to individual peptides from the alanine scanning library (100 nM peptide) for 24 h. An alanine-scanning bioactivity score (sum of the fold change gene expression of COL10A1, ALPL, MMP13, and COL2A1 plus NKX3-2 of the alanine-substituted peptides versus the wild-type p[63−82] peptide) was calculated for each alanine substitution in the amino acid sequence of peptide p[63−82] and is represented by the height of each letter on the y axis (data in Figure S4). (D) Multiple sequence alignment of the human BMP7 p[63−82] peptide with the homologous region in BMP7 of other species.
We aimed to further understand the sequence dependency of the peptide bioactivity. Peptide p[63−82] was derived from the central region within BMP7, and since this yielded a limited series of bioactive peptides (Figures 1B and S2), we further focused our analyses on peptide p[63−82]. To determine which amino acids are important for the bioactivity of peptide p[63−82], an alanine-scanning peptide library was synthesized, based on systematic alanine substitution of consecutive amino acids in the peptide p[63−82] sequence (Table S1). This alanine-scanning library was then screened by exposing an OA-HAC pool (the same pool that was used for the full library scanning in Figure 1) for 24 h to 100 nM of each peptide in the alanine-scanning library. The bioactivity of each peptide was determined by measuring gene expression of COL10A1, ALPL, MMP13, COL2A1, and NKX3-2 (Figure S4). Changes in the bioactivity of the alanine-scanning library peptides were combined into a “bioactivity score” of each individual substituted amino acid in the parental p[63−82] peptide (Figure 5C). […] The region in BMP7 from which peptide p[63−82] was derived and the G7 position in it are evolutionary highly conserved, as determined by sequence alignment of BMP7 sequences from various animal species (Figure 5D).
For the peptide-screening and alanine-scanning experiments, cDNA was prepared using the Cells-to-Ct kit (Invitrogen) according to the manufacturer’s protocol. For the other experiments, cells or homogenized tissues (Mikro-Dismembrator; Braun Biotech International) were lysed in TRIzol (Life Technologies) and RNA isolation and cDNA synthesis were performed as described earlier.[27]^,[57] Quantitative real-time PCR was performed using Takyon qPCR Master Mix plus blue for SYBR Green (Eurogentec). […]

[1] = system: primary human OA articular chondrocytes (OA-HACs); experiment: BMP7 peptide library screening, quantitative real-time PCR of OA chondrocyte phenotype genes; type: cell-based; conditions: pool of 18 OA-HAC donors, scrambled peptides 100 nM, 24 h (Figure 2G)
Text: To investigate whether BMP7 harbors potential peptide sequences that improve the OA chondrocyte phenotype, a peptide library was designed from the mature 139 amino acid-long human BMP7 sequence (Table S2). The peptide library was designed as 20-mer peptides with 2 amino acid intervals (18 amino acid overlap) between individual peptides and with all cysteine residues substituted by serine residues to avoid uncontrolled oxidation of cysteine groups. This yielded 61 individual peptides covering the complete mature human BMP7 sequence (Figure 1A). The peptide library was screened using a pool of primary human OA articular chondrocytes (OA-HACs) from 18 individual donors. Prior to pooling, individual OA-HAC isolates were tested for their responsiveness to BMP7 (Figure S1). The screening was conducted by exposing the OA-HAC pool for 24 h to a concentration series (1, 10, 100, or 1,000 nM) of each peptide from the library. […] This is defined as reduced expression of collagen type X alpha 1 chain (COL10A1), alkaline phosphatase (ALPL), Runt-related transcription factor 2 (RUNX2), ADAMTS5, MMP13, prostaglandin-endoperoxide synthase 2 or cyclooxygenase-2 (COX-2), and interleukin 6 (IL6) and increased expression of SRY-box transcription factor 9 (SOX9), COL2A1, and NKX3-2. […] Representative peptides inducing the above gene expression characteristics in OA-HACs were selected from both regions for further investigation. These were peptide p[63−82] and p[113−132] from the library, covering amino acids 63−82 and 113−132 of the mature BMP7 amino acid sequence. The complete quantitative real-time PCR data for peptides p[63−82] and p[113−132] […] For the two candidate peptides, we validated data using an independent cohort of three OA-HACs exposed to 100 nM of p[63−82] or p[113−132] or a combination of both peptides. […] Taken together, two regions in BMP7 were identified delivering peptide sequences that are able to improve the OA chondrocyte phenotype.
Figure 1 BMP7 peptide library screening on primary human OA articular chondrocytes (OA-HACs) (A) Schematic representation of the design of the human BMP7 peptide library. (B) COL10A1 mRNA expression in samples from the library screening on a pool of 18 OA-HACs individually exposed for 24 h to the peptides (100 nM) in the library. Data are shown as compared to the control condition (white bar) and full-length BMP7 (1 nM; gray bar). The two blue bars represent candidate peptides p[63−82] and p[113−132]. […] Error bars represent mean ± SEM, and statistical significance for peptide condition or BMP7 versus control condition as determined by unpaired two-tailed Student’s t test is represented as ∗p < 0.05, ∗∗p < 0.01, and ∗∗∗p < 0.001; NS, not significant.
Figure 2 Bioactivity of BMP7-derived peptides p[63−82] and p[113−132] on OA-HACs Complete peptide library screening quantitative real-time PCR dataset for peptides p[63−82] and p[113−132] is presented. (A) SOX9, COL2A1, and NKX3-2 mRNA expression in the 18 OA-HAC pool exposed to 1,000, 100, 10, or 1 nM of peptide p[63−82] and p[113−132] is shown and presented relative to control (black bars) and alongside full-length BMP7 (white bars). (B) Similar to (A) but for chondrocyte hypertrophy-associated genes RUNX2, COL10A1, and ALPL. (C) Similar to (A) but for cartilage extracellular matrix remodeling-associated genes MMP13 and ADAMTS5 and inflammation-related genes COX-2 and IL-6. (D) Glycosaminoglycan (GAG) content (normalized to total protein content) on an independent cohort of three individual OA-HAC donors treated with 100 nM peptides p[63−82] and p[113−132] for 24 h. (E) Alkaline phosphatase (ALP) activity (normalized to total protein content) in similar samples from (D). (F) Prostaglandin E2 (PGE2) levels in culture supernatant in similar samples from (D). […]

Substance	impact of alanine substitution on peptide p[63-82] bioactivity (bioactivity score) (OA-HAC pool)	also measured
H-AAAYSEGESAFPLNSYMNAT-OH [Y3A, alanine-scanning peptide of p[63−82], substitution position 03]	important impact	
H-AAYYSEAESAFPLNSYMNAT-OH [G7A, alanine-scanning peptide of p[63−82], substitution position 07]	important impact	response on chondrocyte hypertrophy (OA-HAC pool; 24 h (Figure S4)): reciprocal response; impact on the chondrocyte phenotype-modulating action of the peptide (OA-HAC pool; 24 h (Figures 5C, S4)): largest impact
H-AAYYSEGASAFPLNSYMNAT-OH [E8A, alanine-scanning peptide of p[63−82], substitution position 08]	important impact	
H-AAYYSEGESAAPLNSYMNAT-OH [F11A, alanine-scanning peptide of p[63−82], substitution position 11]	important impact	
H-AAYYSEGESAFPLNSAMNAT-OH [Y16A, alanine-scanning peptide of p[63−82], substitution position 16]	important impact	
H-AAYYSEGESAFPLNSYANAT-OH [M17A, alanine-scanning peptide of p[63−82], substitution position 17]	important impact	
H-VYISNVDDYSNKFLLKVRSM-OH [scrambled p[113−132], scrambled version of peptide p[113−132], reference compound]		sequence specificity: expression of COL2A1, RUNX2, COL10A1, and COX-2 [1]: neither one of them was able to recapitulate the bioactivity
